# Test results reported in US11851449B2, “Heterocyclic amide compounds having an RORvt inhibitory action” (TAKEDA PHARMACEUTICAL COMPANY LIMITED, priority 2013, dated 2023).
# Assays:
# [1] = target: T1, RORγt (Homo sapiens, UniProt P51449); test: RORγt binding test (TR-FRET, fluorescent-labeled cholesterol); settings: read-out: binding inhibitory rate (%) of fluorescent-labeled cholesterol to RORγt at test compound 1 μM
# T1 sequence (P51449 1-497 isoform P51449-2): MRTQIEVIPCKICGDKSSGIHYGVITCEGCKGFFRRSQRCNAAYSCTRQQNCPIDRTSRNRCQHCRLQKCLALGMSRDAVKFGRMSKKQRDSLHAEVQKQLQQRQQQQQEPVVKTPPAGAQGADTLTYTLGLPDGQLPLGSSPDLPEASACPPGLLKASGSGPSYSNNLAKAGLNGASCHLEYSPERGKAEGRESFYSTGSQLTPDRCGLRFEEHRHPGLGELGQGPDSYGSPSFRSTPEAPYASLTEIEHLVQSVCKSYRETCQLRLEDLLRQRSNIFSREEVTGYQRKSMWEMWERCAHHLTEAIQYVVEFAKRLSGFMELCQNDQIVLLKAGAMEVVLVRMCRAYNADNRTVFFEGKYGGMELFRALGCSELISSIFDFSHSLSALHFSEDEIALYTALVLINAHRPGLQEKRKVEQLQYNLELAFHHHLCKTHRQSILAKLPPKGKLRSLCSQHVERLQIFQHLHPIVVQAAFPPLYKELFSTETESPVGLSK
# Protocol: The binding activity of the test compound to RORγt was measured by a time resolved fluorescence resonance energy transfer method (TR-FRET) utilizing histidine-tagged RORγt, fluorescent-labeled cholesterol (BODIPY-cholesterol, AVIVA), and terbium-labeled anti-histidine tag antibody (Invitrogen). First, a test compound diluted with an assay buffer (20 mM Tris-HCl (pH 7.5), 100 mM NaCl, 1 mM DTT, 0.1% BSA) was added to a 384 well plate by 3 μL. Then, RORγt diluted with an assay buffer to 240 nM was added by 3 μL, after which fluorescent-labeled cholesterol diluted with the assay buffer to 12 μM was added by 3 μL, and the mixture was stood at room temperature for 20 min. Thereafter, a terbium-labeled anti-histidine tag antibody diluted with the assay buffer to 8 nM was added by 3 μL. The mixture was stood at room temperature for 20 min, and fluorescence intensity (excitation wavelength 320 nm, fluorescence wavelength 520 nm, delay time 100 microseconds) was measured by Envision (PerkinElmer).
# [2] = target: T1, RORγt; test: Jurkat reporter test (human IL-17 ROR response element luciferase reporter); type: cell-based; settings: Jurkat, read-out: luminescence level inhibitory rate (%) at test compound 3 μM
# Protocol: The Jurkat cells used for the reporter test were cultured in a culture medium (RPMI (Invitrogen), 10% FCS (AusGeneX), 100 U/mL penicillin, 100 μg/mL streptomycin). On the day of the test, 4×10^7 cells were recovered by a centrifugal operation (1000 rpm, 5 min.) and suspended in PBS (phosphate buffered saline) (Invitrogen). Thereafter, the cells were recovered again by a centrifugal operation, and suspended in 2 mL of R buffer (NEON transfection kit, Invitrogen). […] Gene transfer was performed by Electroporation apparatus (NEON, Invitrogen) under the conditions of pulse voltage 1350 V, interval 10 milliseconds, number of times 3. The cells after gene transfer were suspended in 40 mL of a reaction medium (RPMI, 10% Lipid reduced FCS (HyClone), 10 mM HEPES (pH 7.5), 100 U/mL penicillin, 100 μg/mL streptomycin, 5 μM lovastatin), and plated in a 96 well plate by 90 μL. A test compound diluted with the reaction medium was added by 10 μL, and the cells were cultured overnight in an incubator. Bright-Glo (Promega) was added by 100 μL, and the mixture was stirred at room temperature for 10 min, and the luminescence level was measured by Envision (PerkinElmer).
# [3] = target: T1, RORγt; test: Cofactor recruitment test (Alpha Screen, biotinylated SRC-1 peptide); type: biochemical; settings: read-out: signal value inhibitory rate (%) at test compound 1 μM
# Protocol: Cofactor Recruitment Test
# Cofactor recruitment test was performed by Alpha Screen (Histidine Detection Kit, PerkinElmer) method. First, a test compound was diluted with an assay buffer (50 mM Tris-HCl (pH 7.5), 50 mM KCl, 1 mM DTT, 0.1% BSA) and added to a 384 well plate by 5 μL. […] The mixture was stood in a dark place for 1 hr, and the signal value was measured by Envision (PerkinElmer).
SMILES,inhibition at 1 µM [1] [%],inhibition at 3 µM [2] [%],inhibition at 1 µM [3] [%]
"COc1ccc([C@@H](NC(=O)[C@H]2CNC(=O)C2)C(=O)Nc2ccc([Si](C)(C)C)c(F)c2)cc1 [Example 70, (3R)—N-((1R)-2-((3-fluoro-4-(trimethylsilyl)phenyl)amino)-1-(4-methoxyphenyl)-2-oxoethyl)-5-oxopyrrolidine-3-carboxamide]",101,96.5,82.8
"COCc1ccc([C@@H](NC(=O)Cn2cnccc2=O)C(=O)Nc2ccc([Si](C)(C)C)c(F)c2)cc1 [Example 53, (2R)—N-(3-fluoro-4-(trimethylsilyl)phenyl)-2-(4-(methoxymethyl)phenyl)-2-(((6-oxopyrimidin-1(6H)-yl)acetyl)amino)acetamide]",102,98.4,97.8
"COCc1ccc([C@@H](NC(=O)[C@H]2CNC(=O)C2)C(=O)Nc2ccc([Si](C)(C)C)c(F)c2)cc1 [Example 54, (3R)—N-((1R)-2-((3-fluoro-4-(trimethylsilyl)phenyl)amino)-1-(4-(methoxymethyl)phenyl)-2-oxoethyl)-5-oxopyrrolidine-3-carboxamide]",102,99,95.6
"COCc1ccc([C@@H](NC(=O)Cn2ccc(=O)[nH]c2=O)C(=O)Nc2ccc([Si](C)(C)C)c(F)c2)cc1 [Example 59, (2R)-2-(((2,4-dioxo-3,4-dihydropyrimidin-1(2H)-yl)acetyl)amino)-N-(3-fluoro-4-(trimethylsilyl)phenyl)-2-(4-(methoxymethyl)phenyl)acetamide]",102,99.2,96
"COc1ccc(C(NC(=O)C2CNC(=O)C2)C(=O)Nc2ccc([Si](C)(C)C)cc2)cc1 (stereo not drawn) [Example 13, N-(1-(4-methoxyphenyl)-2-oxo-2-((4-(trimethylsilyl)phenyl)amino)ethyl)-5-oxopyrrolidine-3-carboxamide]",101,92.6,51.1
"COCc1ccc([C@@H](NC(=O)Cn2nc(C)ccc2=O)C(=O)Nc2cc(F)c([Si](C)(C)C)c(F)c2)cc1 [Example 61, (2R)—N-(3,5-difluoro-4-(trimethylsilyl)phenyl)-2-(4-(methoxymethyl)phenyl)-2-(((3-methyl-6-oxopyridazin-1(6H)-yl)acetyl)amino)acetamide]",102,100,97
"COCc1ccc([C@@H](NC(=O)CS(C)(=O)=O)C(=O)Nc2ccc([Si](C)(C)C)c(F)c2)cc1 [Example 81, (2R)—N-(3-fluoro-4-(trimethylsilyl)phenyl)-2-(4-(methoxymethyl)phenyl)-2-(((methylsulfonyl)acetyl)amino)acetamide]",103,98.3,94.9
"COCc1ccc([C@@H](NC(=O)N2CC[C@H](F)C2)C(=O)Nc2ccc([Si](C)(C)C)c(F)c2)cc1 [Example 96, (3S)-3-fluoro-N-((1R)-2-((3-fluoro-4-(trimethylsilyl)phenyl)amino)-1-(4-(methoxymethyl)phenyl)-2-oxoethyl)pyrrolidine-1-carboxamide]",98.6,99.5,91.2
"C[Si](C)(C)c1c(F)cc(NC(=O)[C@H](NC(=O)c2cc(O)no2)C2CCOCC2)cc1F [Example 3, N-((1R)-2-((3,5-difluoro-4-(trimethylsilyl)phenyl)amino)-2-oxo-1-(tetrahydro-2H-pyran-4-yl)ethyl)-3-hydroxy-1,2-oxazole-5-carboxamide]",100,98.4,72.3
"COc1ccc(C(NC(=O)Cc2cc(C)no2)C(=O)Nc2ccc([Si](C)(C)C)cc2)cc1 (stereo not drawn) [Example 18, 2-(4-methoxyphenyl)-2-(((3-methyl-1,2-oxazol-5-yl)acetyl)amino)-N-(4-(trimethylsilyl)phenyl)acetamide]",101,90.9,60.3
"COCc1ccc([C@@H](NC(=O)C2CCOCC2)C(=O)Nc2ccc([Si](C)(C)C)c(F)c2)cc1 [Example 88, N-((1R)-2-((3-fluoro-4-(trimethylsilyl)phenyl)amino)-1-(4-(methoxymethyl)phenyl)-2-oxoethyl)tetrahydro-2H-pyran-4-carboxamide]",103,98.1,90.7
"CCC(=O)N[C@@H](C(=O)Nc1ccc([Si](C)(C)C)c(F)c1)c1ccc(COC)cc1 [Example 79, N-((1R)-2-((3-fluoro-4-(trimethylsilyl)phenyl)amino)-1-(4-(methoxymethyl)phenyl)-2-oxoethyl)propanamide]",103,98.4,93
"C[Si](C)(C)c1c(F)cc(NC(=O)C(NC(=O)Cn2cnccc2=O)C2CCOCC2)cc1F (stereo not drawn) [Example 1, N-(3,5-difluoro-4-(trimethylsilyl)phenyl)-2-(((6-oxopyrimidin-1(6H)-yl)acetyl)amino)-2-(tetrahydro-2H-pyran-4-yl)acetamide]",100,97.3,72.7
"COCc1ccc([C@@H](NC(=O)Cc2cc(O)no2)C(=O)Nc2ccc([Si](C)(C)C)c(F)c2)cc1 [Example 75, (2R)—N-(3-fluoro-4-(trimethylsilyl)phenyl)-2-(((3-hydroxy-1,2-oxazol-5-yl)acetyl)amino)-2-(4-(methoxymethyl)phenyl)acetamide]",102,99.7,95.8
"COCc1ccc([C@@H](NC(=O)CC(F)(F)F)C(=O)Nc2ccc([Si](C)(C)C)c(F)c2)cc1 [Example 93, 3,3,3-trifluoro-N-((1R)-2-((3-fluoro-4-(trimethylsilyl)phenyl)amino)-1-(4-(methoxymethyl)phenyl)-2-oxoethyl)propanamide]",102,99.1,92.3
"COCc1ccc([C@@H](NC(=O)N2CC[C@H](O)C2)C(=O)Nc2ccc([Si](C)(C)C)c(F)c2)cc1 [Example 65, (3S)—N-((1R)-2-((3-fluoro-4-(trimethylsilyl)phenyl)amino)-1-(4-(methoxymethyl)phenyl)-2-oxoethyl)-3-hydroxypyrrolidine-1-carboxamide]",102,98.5,94.3
"COCc1ccc(C(C(=O)Nc2cc(F)c([Si](C)(C)C)cc2F)N(C)C(=O)c2cc(O)no2)cc1 (stereo not drawn) [Example 43, N-(2-((2,5-difluoro-4-(trimethylsilyl)phenyl)amino)-1-(4-(methoxymethyl)phenyl)-2-oxoethyl)-3-hydroxy-N-methyl-1,2-oxazole-5-carboxamide]",102,100,96.1
"C[Si](C)(C)c1ccc(NC(=O)C(NC(=O)c2cc(O)no2)C2CCC(F)(F)CC2)cc1F (stereo not drawn) [Example 4, N-(1-(4,4-difluorocyclohexyl)-2-((3-fluoro-4-(trimethylsilyl)phenyl)amino)-2-oxoethyl)-3-hydroxy-1,2-oxazole-5-carboxamide]",100,97,78.8
